From ChEMBL document CHEMBL1201862, “PubChem BioAssay data set” (2004)
Calls of active or inactive are those of the source.

How the values were obtained:
[1] = target: T1, Calpain-2 catalytic subunit (Sus scrofa, UniProt P43367); test: pig calpain II inhibitor potency, dose response, biochemical, fluorogenic peptide substrate (AID 1420); format: functional
T1 sequence (P43367 whole entry): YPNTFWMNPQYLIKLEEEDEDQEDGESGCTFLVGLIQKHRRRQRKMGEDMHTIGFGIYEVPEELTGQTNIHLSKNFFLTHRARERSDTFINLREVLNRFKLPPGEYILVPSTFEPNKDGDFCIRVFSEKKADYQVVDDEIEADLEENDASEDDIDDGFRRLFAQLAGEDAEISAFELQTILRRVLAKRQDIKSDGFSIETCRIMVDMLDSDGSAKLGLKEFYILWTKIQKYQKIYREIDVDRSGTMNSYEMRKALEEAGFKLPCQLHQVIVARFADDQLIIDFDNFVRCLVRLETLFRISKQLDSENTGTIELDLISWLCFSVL

[2] = ZM109 Env clade C HIV-1 fusion inhibitors, dose response, HeLa effector, CEM target cells, luciferase, cherry-pick (AID 652058); format: functional, cell-based
[3] = inhibitors of clade B AD8 Env fusion, dose response, cell-based, cherry-pick (AID 652062); format: functional;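 note: luciferase signal from cell-cell fusion driven by HIV-1 clade B AD8 Env; potency is for inhibitors of fusion seen as a drop in luminescence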
[4] = off-target signal loss in HeLa-CEM21 co-culture – HeLa F-luc CTL cells, cherry-picked, counter-screen for HIV-1 Env fusion inhibitor project, dose response (AID 652040); format: functional, cell-based;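 note: potency for signal decrease marking cytotoxic or nonspecific inhibition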
[5] = inhibitors of HIV Env-driven cell fusion, dose response, cherry-pick (AID 652057); format: functional, cell-based
Cytochrome P450 1A2 = target: T2, Cytochrome P450 1A2 (Homo sapiens, UniProt P05177);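 note: PubChem cytochrome P450 panel assay, CYP1A2 panel member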
T2 sequence (P05177 whole entry): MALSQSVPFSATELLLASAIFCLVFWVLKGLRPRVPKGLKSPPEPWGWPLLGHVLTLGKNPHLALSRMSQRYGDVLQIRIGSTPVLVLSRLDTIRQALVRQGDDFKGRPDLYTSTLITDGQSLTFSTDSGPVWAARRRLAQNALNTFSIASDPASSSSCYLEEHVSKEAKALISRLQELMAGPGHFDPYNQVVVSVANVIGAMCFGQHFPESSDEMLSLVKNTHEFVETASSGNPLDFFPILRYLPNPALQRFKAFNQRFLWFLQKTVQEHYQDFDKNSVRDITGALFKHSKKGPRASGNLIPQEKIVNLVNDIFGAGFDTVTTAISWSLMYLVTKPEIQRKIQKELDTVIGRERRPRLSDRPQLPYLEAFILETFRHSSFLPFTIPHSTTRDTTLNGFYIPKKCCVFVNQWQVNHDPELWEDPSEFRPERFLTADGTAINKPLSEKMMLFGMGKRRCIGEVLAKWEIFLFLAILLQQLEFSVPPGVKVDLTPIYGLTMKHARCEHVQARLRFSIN

[6] = target: Eukaryotic translation initiation factor 4E (Mus musculus, UniProt P63073); test: eIF4E–eIF4G protein interaction inhibitors, dose response, biochemical, TR-FRET (AID 855); format: functional;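 note: potency for disrupting eIF4E binding to eIF4GI seen as loss of FRET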
[7] = target: T3, Endoribonuclease toxin MazF (Escherichia coli K-12, UniProt P0AE70); test: fluorescent RNA oligo signal without MazF, dose response, counter-screen for MazEF activator project, biochemical, fluorescence, single-stranded RNase substrate (AID 588502); format: functional
T3 sequence (P0AE70 whole entry): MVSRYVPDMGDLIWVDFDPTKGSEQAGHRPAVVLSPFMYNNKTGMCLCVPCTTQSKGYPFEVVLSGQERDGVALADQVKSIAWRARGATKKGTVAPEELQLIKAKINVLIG

[8] = target: T4, RNA-binding protein pos-1 (Caenorhabditis elegans, UniProt G5EF15); test: inhibitors of POS-1/mex-3 RNA binding, dose response, biochemical, fluorescence polarization (AID 1964);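 note: purified POS-1 fused to maltose binding protein made in E. coli; potency of compounds blocking POS-1 binding to fluorescent RNA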
T4 sequence (G5EF15 whole entry): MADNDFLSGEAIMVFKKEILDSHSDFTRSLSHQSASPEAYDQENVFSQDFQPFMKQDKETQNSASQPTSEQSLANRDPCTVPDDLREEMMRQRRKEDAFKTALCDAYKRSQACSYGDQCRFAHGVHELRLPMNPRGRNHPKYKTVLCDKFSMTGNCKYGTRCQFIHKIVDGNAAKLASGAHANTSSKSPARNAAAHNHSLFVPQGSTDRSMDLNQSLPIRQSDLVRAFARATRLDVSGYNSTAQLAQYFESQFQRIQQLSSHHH

[9] = target: T3, Endoribonuclease toxin MazF; test: MazF toxin RNase activators, dose response, biochemical, fluorescence, single-stranded RNA substrate, uHTS hits (AID 588481); format: functional
[10] = target: T5, Zinc finger protein mex-5 (Caenorhabditis elegans, UniProt Q9XUB2); test: MEX-5/TCR-2 RNA interaction inhibitors, dose response, biochemical, C. elegans, fluorescence polarization (AID 1960)
T5 sequence (Q9XUB2 whole entry): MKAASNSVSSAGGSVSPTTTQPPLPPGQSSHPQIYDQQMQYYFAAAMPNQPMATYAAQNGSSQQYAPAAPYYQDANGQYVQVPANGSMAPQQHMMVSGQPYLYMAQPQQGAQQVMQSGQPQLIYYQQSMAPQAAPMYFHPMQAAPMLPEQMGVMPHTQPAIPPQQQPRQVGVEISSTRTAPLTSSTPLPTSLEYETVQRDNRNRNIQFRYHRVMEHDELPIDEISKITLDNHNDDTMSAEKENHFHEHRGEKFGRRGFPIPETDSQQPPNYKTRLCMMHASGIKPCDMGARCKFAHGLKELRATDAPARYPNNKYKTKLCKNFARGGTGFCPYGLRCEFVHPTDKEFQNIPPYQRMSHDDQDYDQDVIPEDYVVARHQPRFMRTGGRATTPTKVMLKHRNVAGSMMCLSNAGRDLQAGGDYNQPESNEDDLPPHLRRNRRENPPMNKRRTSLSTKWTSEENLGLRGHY

Protein RecA = target: T6, Protein RecA (Mycobacterium tuberculosis, UniProt P9WHJ3); test: Fluorescence Cell-Free Homogeneous Dose Retest to Identify Inhibitors of RecA-Intein Splicing Activity. [Related pubchem assays (depositor defined):AID2097, AID2223, AID489010, AID492950]; format: functional
T6 sequence (P9WHJ3 whole entry): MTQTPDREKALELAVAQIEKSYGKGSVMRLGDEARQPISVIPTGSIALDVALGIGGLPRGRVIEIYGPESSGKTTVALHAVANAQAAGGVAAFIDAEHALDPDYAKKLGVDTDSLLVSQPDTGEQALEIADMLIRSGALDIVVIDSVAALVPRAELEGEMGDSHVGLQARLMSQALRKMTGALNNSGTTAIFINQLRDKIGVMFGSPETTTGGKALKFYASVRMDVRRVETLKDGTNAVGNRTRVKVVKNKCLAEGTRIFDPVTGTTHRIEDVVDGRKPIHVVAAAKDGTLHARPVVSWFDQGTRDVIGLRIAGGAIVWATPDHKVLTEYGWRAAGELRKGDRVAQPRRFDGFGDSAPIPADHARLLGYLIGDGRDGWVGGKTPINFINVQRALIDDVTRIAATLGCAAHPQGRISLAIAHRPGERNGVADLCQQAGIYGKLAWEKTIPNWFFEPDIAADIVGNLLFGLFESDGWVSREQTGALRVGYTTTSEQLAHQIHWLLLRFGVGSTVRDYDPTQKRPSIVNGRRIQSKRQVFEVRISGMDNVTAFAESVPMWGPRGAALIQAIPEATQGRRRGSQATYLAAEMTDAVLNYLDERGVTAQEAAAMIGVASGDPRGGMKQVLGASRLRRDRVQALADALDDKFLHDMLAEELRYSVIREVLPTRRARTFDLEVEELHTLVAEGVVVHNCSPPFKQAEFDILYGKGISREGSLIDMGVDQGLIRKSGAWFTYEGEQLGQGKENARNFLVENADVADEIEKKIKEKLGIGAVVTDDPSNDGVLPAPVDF

[11] = target: T7, Replicative DNA helicase DnaB (Mycobacterium tuberculosis, UniProt P9WMR3); test: DnaB intein splicing inhibitors, dose response, biochemical, cell-free fluorescence (AID 449749); format: functional
T7 sequence (P9WMR3 whole entry): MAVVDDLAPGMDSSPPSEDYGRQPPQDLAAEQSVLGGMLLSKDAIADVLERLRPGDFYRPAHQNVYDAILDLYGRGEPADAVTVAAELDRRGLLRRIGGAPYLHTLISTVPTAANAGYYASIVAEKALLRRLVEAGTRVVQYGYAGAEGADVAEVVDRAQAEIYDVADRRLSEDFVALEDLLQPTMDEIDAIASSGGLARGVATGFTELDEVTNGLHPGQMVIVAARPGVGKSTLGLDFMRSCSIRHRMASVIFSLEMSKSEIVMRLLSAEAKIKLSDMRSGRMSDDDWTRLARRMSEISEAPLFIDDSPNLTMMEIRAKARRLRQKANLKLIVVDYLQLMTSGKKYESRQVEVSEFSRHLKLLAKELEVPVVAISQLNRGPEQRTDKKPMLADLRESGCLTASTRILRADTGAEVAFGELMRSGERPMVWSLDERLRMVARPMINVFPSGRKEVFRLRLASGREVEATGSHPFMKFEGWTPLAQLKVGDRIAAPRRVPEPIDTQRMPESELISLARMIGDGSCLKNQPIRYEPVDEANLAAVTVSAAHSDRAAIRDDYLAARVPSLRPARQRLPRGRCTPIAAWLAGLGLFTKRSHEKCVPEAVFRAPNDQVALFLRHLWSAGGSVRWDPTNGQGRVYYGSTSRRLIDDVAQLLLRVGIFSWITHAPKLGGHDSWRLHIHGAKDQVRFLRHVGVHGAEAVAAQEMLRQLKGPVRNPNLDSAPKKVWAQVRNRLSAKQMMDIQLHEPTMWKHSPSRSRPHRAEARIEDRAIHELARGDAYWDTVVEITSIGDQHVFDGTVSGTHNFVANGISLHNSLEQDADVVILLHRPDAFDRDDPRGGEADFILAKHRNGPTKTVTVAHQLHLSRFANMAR

[12] = P. falciparum Dd2 growth inhibitors, dose response, SYBR Green, cherry-picked samples (AID 1159567); format: functional, cell-based
[13] = HepG2 cell cytotoxicity, dose response, cytotoxicity control, plate reader, cherry-pick, antagonist series (AID 743416); format: functional, cell-based
[14] = MC4R antagonists, dose response, counter-screen for LGR2 antagonist project, cell-based, plate reader, cherry pick (AID 743444); format: functional;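 note: transfected HEK 293 cells stimulated with alpha-MSH peptide; potency of inhibitors of the alpha-MSH evoked signal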
[15] = LGR2 antagonists, dose response, cell-based, HEK293, CRE-luciferase reporter, cherry pick, set 2 (AID 743343); format: functional;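 note: transfected cells were stimulated with diluted bursicon conditioned medium after compound addition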
[16] = A549 cell cytotoxicity, dose response, cytotoxicity control, plate reader, cherry-pick, antagonist series (AID 743412); format: functional, cell-based

Eukaryotic translation initiation factor 4E, sequence (P63073 whole entry): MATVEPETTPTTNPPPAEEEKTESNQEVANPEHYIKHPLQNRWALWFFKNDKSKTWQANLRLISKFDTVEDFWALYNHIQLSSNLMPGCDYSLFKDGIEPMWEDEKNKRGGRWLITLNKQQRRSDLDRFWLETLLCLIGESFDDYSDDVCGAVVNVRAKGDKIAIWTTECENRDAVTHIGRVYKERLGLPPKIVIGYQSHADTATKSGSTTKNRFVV

In the case of `Cc1c(=O)n(OCc2ccccc2F)c2ccccc2[n+]1[O-]`, the IC50 [1] is reported as 25.6 µM (not active).

For `COC(=O)CC(NS(=O)(=O)c1cccs1)c1cccc2ccccc12` (centres undefined), the IC50 [1] was > 50 µM (not active).

For `O=C(NC1CCCCC1)C(c1cccs1)N(Cc1cccs1)C(=O)c1ccco1` (centres undefined), the AC50 [2] was 5.68 µM (active), the AC50 [3] was 1.55 µM (active) and the AC50 [4] was 48.2 µM (active). For the same compound, the AC50 [5] was 6.72 µM (active) and the AC50 (Cytochrome P450 1A2) was 20 µM (inconclusive).

With `CCOC(=O)Cn1c(=O)oc2cc(S(=O)(=O)NCc3cccs3)ccc21` the IC50 [6] was > 64 µM (inactive).

With `COc1ccc(-c2c(C)nn3c(C(F)(F)F)cc(C)nc23)cc1` the AC50 [4] was 17.8 µM (active).

With `CCN(CC)S(=O)(=O)c1ccc2oc(C(=O)NCc3ccc(C)cc3)c(C)c2c1` the IC50 [1] was 26.3 µM (not active).

With `CSc1nsc(SCC(=O)N2CCc3ccccc32)n1` the IC50 [6] was > 64 µM (inactive).

With `O=C(Nc1ccccc1)c1nn(-c2ccccc2)c(=O)cc1C(F)(F)F` the EC50 [7] was > 99 µM (inactive), the EC50 [8] was > 300 µM (not active) and the EC50 [9] was > 99 µM (inactive). For the same compound, the EC50 [10] was > 300 µM (not active).

For `Cc1ccc(-c2cc(-c3ccccc3)nc(N)c2C#N)o1`, the EC50 [7] was 44.6 µM (inactive) and the EC50 [9] was > 99 µM (inactive).

With `CCOc1ccccc1Nc1nnc(Cc2ccccc2Cl)c(O)n1` the EC50 (Protein RecA) was 21 µM (active), the IC50 [1] was > 50 µM (not active) and the AC50 [11] was > 380 µM (inactive).

With `COc1ccc2c(c1)S/C(=C\C(=O)c1ccncc1)N2C` the EC50 [7] was > 99 µM (inactive), the EC50 [8] was > 300 µM (not active) and the EC50 [9] was > 99 µM (inactive). The EC50 [10] was > 300 µM (not active).

In the case of `CCN(Cc1nc(O)c2ccc(Cl)cc2n1)C(=O)c1cc(C2CC2)nn1-c1ccccc1`, the AC50 [2] is reported as 5.14 µM (active), the AC50 [3] is reported as 4.62 µM (active) and the AC50 [4] is reported as 6.32 µM (active). The AC50 [5] was 2.67 µM (active).

For `C[C@H]1CN([C@@H](C)CO)S(=O)(=O)c2ccc(Br)cc2O[C@H]1CN(C)Cc1ccc(F)cc1`, the AC50 [2] was 5.86 µM (active), the AC50 [3] was 30.9 µM (active) and the AC50 [5] was 3.67 µM (active).

For `Cc1ccccc1S(=O)(=O)N1[C@H](C#N)[C@@H](c2ccc(C#CC3CC3)cc2)[C@@H]1CO`, the AC50 [12] was 4.69 µM (active).

In the case of `Cc1ccoc1C(=O)Nc1ccc2ccccc2c1`, the AC50 [13] is reported as 40 µM (active), the AC50 [14] is reported as 9.34 µM (active) and the AC50 [15] is reported as 7.48 µM (active). The AC50 [16] was > 52 µM (inactive).

With `COc1cccc(-c2cn(CC[C@@H]3CC[C@@H](NS(=O)(=O)c4ccccc4Cl)[C@H](CO)O3)nn2)c1` the AC50 [12] was 5.86 µM (active).

For `Cc1cc(C)cc(NC(=O)c2ccccc2CC[N+](=O)[O-])c1`, the IC50 [6] was > 64 µM (inactive).

With `CCCNC(=O)Nc1ccc2c(c1)C(=O)N(C)C[C@H](OC)[C@H](C)CN(Cc1ccc(-c3ccccn3)cc1)[C@@H](C)CO2` the AC50 [13] was 44 µM (active), the AC50 [14] was 55.8 µM (active) and the AC50 [15] was 50.8 µM (active). The AC50 [16] was 26.4 µM (active).

For `CSc1nnc(N2C(=O)C(O)=C(C(=O)c3ccc(C)o3)C2c2ccc(C)cc2)s1` (centres undefined), the EC50 [7] was > 99 µM (inactive) and the EC50 [9] was 9.87 µM (active).
